Where “and” joins values, the source holds several entries; their conditions need not be identical. Equal values may be shown once. Starred links: 1 amine or outer side, 2 acyl side, 3 side chain; linkers in the order of their positions; H or OH if unused. Positions of bridges follow the written chain, without caps; N, C: chain ends. Non-standard residues stand in square brackets, D forms with d. Residues, ends and D or L forms follow the SMILES beside them. *: point of attachment. Orn(4R-OH,5R-OCH2CH2NMe3+) = C[N+](C)(C)CCO[C@@H](N[*:3])[C@H](O)C[C@H](N[*:1])C(=O)[*:2]; pTerphenylCO(4''-OnC5H11) = CCCCCOc1ccc(-c2ccc(-c3ccc(C(=O)*)cc3)cc2)cc1; hTyr(3S-OH,4S-OH) = N[C@H](C(=O)O)[C@H](O)[C@@H](O)c1ccc(O)cc1; Pro(3S-OH,4S-Me) = C[C@H]1CN[C@H](C(=O)O)[C@H]1O; Hyp = O=C(O)[C@@H]1C[C@@H](O)CN1
Experiments:
[1] = Tissue concentration of subcutaneously injected CD101 in cynomolgus monkeys; assay type: in vivo; details: for CD101 Concentration: individual animals, at necropsy; for Mean Concentration: mean of males and females
Description: In this study, the tissue concentration of subcutaneously injected CD101 was evaluated in cynomolgus monkeys.
Dose levels were 30, 60, and 120 mg/kg/dose for Groups 2, 3, and 4, respectively. […] The dose volumes were 1.2, 0.3, 0.6, and 1.2 mL/kg spread evenly over 4, 1, 2, and 4 dose sites for Groups 1-4, respectively, on each day of dosing. The control and 120 mg/kg/dose groups each consisted of 5 males and 5 females, and the 30 and 60 mg/kg/dose groups each consisted of 3 males and 3 females.
The animals were observed twice daily for mortality and moribundity. Clinical examinations were performed once daily for at least 6 consecutive days, including the day of randomization, prior to randomization, prior to dosing, 1-2 hours postdosing, once daily on nondosing days, and once daily during the recovery period. Detailed physical examinations were performed at least weekly during the acclimation period until randomization, on the day of randomization, weekly (±2 days) during the study period, and on the day of the scheduled necropsies. Injection site (IS) observations were performed prior to dosing (dose sites that were utilized on that day of dosing), 1-2 hours postdosing (dose sites that were utilized on that day of dosing), once daily on nondosing days (dose sites that had been previously been utilized), and twice weekly during the recovery period. Individual body weights were recorded weekly (±2 days). Individual body weights were collected at least weekly during the acclimation period until randomization, on the day of randomization, Study Day 0 (prior to dosing), weekly (2±days) during the study period, on the day prior to the day of the scheduled necropsies (nonfasted) and on the day of the scheduled necropsies (fasted). Clinical pathology parameters (hematology, coagulation, serum chemistry, and urinalysis) were analyzed during acclimation prior to randomization (Study Day −15), and on the day of the primary (Study Day 17) and recovery (Study Day 45) necropsies. Blood samples for toxicokinetic evaluation were collected from all animals/sex/group/time point prior to dose administration and at approximately 1, 2, 4, 8, 24, 48, and 72 hours after dose administration on Study Days 0 and 12. Complete necropsies were performed on all animals, and selected organs were weighed at the scheduled necropsies. Selected tissues were examined microscopically from all animals. Fingernail, toenail, nail bed, and abdominal skin samples were collected from all animals at the scheduled necropsies for bioanalytical analysis.

[2] = test system: T. mentagrophytes ATCC 24953; experiment: Hair root invasion test (mycological evaluation), T. mentagrophytes dermatophytosis guinea pig model, Example 1; assay type: in vivo; details: evaluated study day 10, relative to vehicle control
Description: A request was made to the Animal Resource Center (ARC) at Case Western Reserve University to order the required number of male albino Harlan-Sprague-Dawley Guinea-Pigs (San Diego, Calif.) with a body weight of 450-500 g. Animals were allowed to acclimate for a minimum of 5 days prior to use. Environmental controls for the animal room were set to maintain a temperature of 16 to 22° C., a relative humidity of 30-70%, and a 12:12 light-dark cycle.
T. mentagrophytes ATCC 24953 was used as the infecting fungus. This strain was selected because it can cause skin infection and results in inflammatory reaction.
T. mentagrophytes (from frozen stock) was sub-cultured on Potato Dextrose Agar plates and incubated at 30° C. for 5-7 days. The colonies were scraped from the plates using sterile normal saline (NaCl 0.85%) solution. After washing for three times with sterile saline the conidia were re-suspended in the same solution. Ten-fold dilutions of conidia suspension were prepared and counted using a hemacytometer. Working suspension of conidia was prepared at a final concentration of 1×10^7 Colony Forming Units (CFUs)/100 μL in normal saline.
Each animal was anesthetized with a cocktail of xylazine and ketamine: 0.2 mL intramuscularly. Using an electric shaver, hair was clipped on left side of the guinea pig back. A closer shave was done with a disposable razor. Using a stencil, a square of 2.5 cm×2.5 cm was marked. The marked skin area was abraded with sterile fine grit sandpaper. A cell suspension containing 1×10^7 conidia in 100 μL was applied and rubbed thoroughly on the abraded skin.
Beginning two hours post inoculation, animals were treated subcutaneously (SQ) for CD101 and orally (PO) terbinafine once daily for a period of nine days, or once a week on days 1 and 8.
Study Day 1: Infected the animals with T. mentagrophytes and begin treatments.
Study Day 9 (treatment day 9): End treatments.
Study Day 10: Clinical evaluation of the four quadrants in the marked area was done. Hair samples were obtained from each quadrant (10 per quadrant). Hairs were planted in Potato Dextrose Agar, and incubated for 48 h for mycological evaluation. Procedures for clinical and mycological evaluations are described below.
CD101 was administered SQ in 0.3 mL, while the terbinafine was given orally in 0.3 mL. Vehicle treated group was also included.
Hair samples were removed with a sterile forceps from four quadrants. Ten hair samples from each quadrant were inoculated onto the corresponding quadrant on the Potato Dextrose agar plate and incubated at 30° C. for 2 days. The fungal growth at the hair root was examined under a stereomicroscope. The effectiveness of a compound in reducing the number of mycologically positive hair sample per treated group is expressed as percentage relative to the vehicle control group of animals using the following formula:
where, T=Positive hair in the test group, K=Positive hair in the Untreated control.

With `CCCCCOc1ccc(-c2ccc(-c3ccc(C(=O)N[C@H]4C[C@@H](O)[C@@H](OCC[N+](C)(C)C)NC(=O)[C@@H]5[C@@H](O)[C@@H](C)CN5C(=O)[C@H]([C@@H](C)O)NC(=O)[C@H]([C@H](O)[C@@H](O)c5ccc(O)cc5)NC(=O)[C@@H]5C[C@@H](O)CN5C(=O)[C@H]([C@@H](C)O)NC4=O)cc3)cc2)cc1` [CD101] ({pTerphenylCO(4''-OnC5H11)}-[Orn(4R-OH,5R-OCH2CH2NMe3+)]T[Hyp][hTyr(3S-OH,4S-OH)]T[Pro(3S-OH,4S-Me)]; lactam 1-C) the “CD101 Concentration” value ([1]; Fingernail bed, 30 mg/kg/dose SC once every 3 days (5 doses), 30 mg/kg) was 168 µg/g and 160 µg/g and 92.5 µg/g and 75.9 µg/g and 71.9 µg/g and 48.6 µg/g, the “Mean Concentration” value ([1]; Fingernail bed, 30 mg/kg/dose SC) was 103 µg/g and the “CD101 Concentration” value ([1]; Fingernail bed, 60 mg/kg/dose SC once every 3 days (5 doses), 60 mg/kg) was 218 µg/g and 96.7 µg/g and 251 µg/g and 159 µg/g and 175 µg/g and 184 µg/g. The “Mean Concentration” value ([1]; Fingernail bed, 60 mg/kg/dose SC) was 181 µg/g, the “CD101 Concentration” value ([1]; Fingernail bed, 120 mg/kg/dose SC once every 3 days (5 doses), 120 mg/kg) was 1351 µg/g and 404 µg/g and 67.1 µg/g and 129 µg/g and 346 µg/g and 332 µg/g and 330 µg/g and 147 µg/g and 283 µg/g and 114 µg/g and the “Mean Concentration” value ([1]; Fingernail bed, 120 mg/kg/dose SC) was 350 µg/g. The “CD101 Concentration” value ([1]; Fingernail, 30 mg/kg/dose SC once every 3 days (5 doses), 30 mg/kg) was 106 µg/g and 118 µg/g and 63.6 µg/g and 60.8 µg/g and 74.2 µg/g, the “CD101 Concentration” value ([1]; Fingernail, 60 mg/kg/dose SC once every 3 days (5 doses), 60 mg/kg) was 194 µg/g and 108 µg/g and 527 µg/g and 171 µg/g and 155 µg/g and 175 µg/g and the “Mean Concentration” value ([1]; Fingernail, 60 mg/kg/dose SC) was 222 µg/g. For the same compound, the “CD101 Concentration” value ([1]; Fingernail, 120 mg/kg/dose SC once every 3 days (5 doses), 120 mg/kg) was 266 µg/g and 264 µg/g and 445 µg/g and 469 µg/g and 239 µg/g and 244 µg/g and 269 µg/g and 459 µg/g and 348 µg/g and 339 µg/g, the “Mean Concentration” value ([1]; Fingernail, 120 mg/kg/dose SC) was 334 µg/g and the “CD101 Concentration” value ([1]; Skin, 30 mg/kg/dose SC once every 3 days (5 doses), 30 mg/kg) was 38.2 µg/g and 44.4 µg/g and 43.7 µg/g. The “CD101 Concentration” value ([1]; Skin, 60 mg/kg/dose SC once every 3 days (5 doses), 60 mg/kg) was 108 µg/g and 66.2 µg/g and 99.6 µg/g and 48.8 µg/g and 81.7 µg/g and 82.0 µg/g, the “Mean Concentration” value ([1]; Skin, 60 mg/kg/dose SC) was 81.0 µg/g and the “CD101 Concentration” value ([1]; Skin, 120 mg/kg/dose SC once every 3 days (5 doses), 120 mg/kg) was 133 µg/g and 132 µg/g and 32.0 µg/g and 12.2 µg/g and 141 µg/g and 151 µg/g and 77.6 µg/g and 43.1 µg/g and 135 µg/g and 15.9 µg/g. The “Mean Concentration” value ([1]; Skin, 120 mg/kg/dose SC) was 87.3 µg/g, the “CD101 Concentration” value ([1]; Toenail bed, 30 mg/kg/dose SC once every 3 days (5 doses), 30 mg/kg) was 76.9 µg/g and 102 µg/g and 50.5 µg/g and 86.1 µg/g and 82.9 µg/g and the “Mean Concentration” value ([1]; Toenail bed, 30 mg/kg/dose SC) was 74.7 µg/g. For the same compound, the “CD101 Concentration” value ([1]; Toenail, 30 mg/kg/dose SC once every 3 days (5 doses), 30 mg/kg) was 76.0 µg/g and 74.2 µg/g and 126 µg/g and 58.8 µg/g and 42.8 µg/g and 38.3 µg/g, the “Mean Concentration” value ([1]; Toenail, 30 mg/kg/dose SC) was 69.3 µg/g and the “CD101 Concentration” value ([1]; Toenail, 60 mg/kg/dose SC once every 3 days (5 doses), 60 mg/kg) was 265 µg/g and 86.7 µg/g and 198 µg/g and 106 µg/g and 160 µg/g and 79.2 µg/g. The “Mean Concentration” value ([1]; Toenail, 60 mg/kg/dose SC) was 149 µg/g, the “CD101 Concentration” value ([1]; Toenail, 120 mg/kg/dose SC once every 3 days (5 doses), 120 mg/kg) was 268 µg/g and 182 µg/g and 360 µg/g and 162 µg/g and 416 µg/g and 173 µg/g and 206 µg/g and 318 µg/g and 190 µg/g and 193 µg/g and the “Mean Concentration” value ([1]; Toenail, 120 mg/kg/dose SC) was 247 µg/g. The “Percent Efficacy Mycological” value ([2]; 35 mg/kg SQ daily for nine days) was 88.0% and the “Percent Efficacy Mycological” value ([2]; 35 mg/kg SQ once a week (days 1 and 8)) was 85.5%.
